Where “and” joins values, the source holds several entries; their conditions need not be identical. Equal entries are not always repeated. Where two headings read alike, the source gives them in different places.
How the values were obtained:
WT PfMDH = biological target: T1, WT PfMDH (Plasmodium falciparum, UniProt Q6VVP7); assay: Activity screening of 4DT / 4-phenylthiazol-2-amine derivatives (oxidation of malate, absorbance at 340 nm); format: biochemical
T1 construct: The full-length WT PfMDH gene was cloned into pETM-13; made in house; host or cells: E. coli Rosetta 2 (DE3) pLysS
T1 sequence (Q6VVP7 entry or part of it): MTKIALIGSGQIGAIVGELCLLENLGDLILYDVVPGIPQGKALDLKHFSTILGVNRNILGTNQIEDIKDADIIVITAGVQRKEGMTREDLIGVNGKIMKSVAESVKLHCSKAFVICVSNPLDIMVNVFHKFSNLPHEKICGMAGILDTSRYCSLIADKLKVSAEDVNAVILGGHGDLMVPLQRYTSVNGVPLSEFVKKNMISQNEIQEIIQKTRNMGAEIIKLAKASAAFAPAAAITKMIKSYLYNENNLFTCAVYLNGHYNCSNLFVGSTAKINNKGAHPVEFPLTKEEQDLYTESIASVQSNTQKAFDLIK
Experimental: The oxidation of malate to oxaloacetate was assayed spectrophotometrically in flat-bottomed Corning 96-well microplates in a total volume of 250.0 µl in 50 mM glycine buffer pH 10.2[24] with an additional 400 mM NaCl for protein stability. The increase of absorbance at 340 nm was recorded in kinetic mode using a Tecan Spark multimode microplate reader at 298 K. A mastermix of 50 mM NAD+ and 44 μM PfMDH was used for both the screening and kinetics experiments. The final concentration of protein and cofactor were […], respectively. Positive control groups were set (absence of compound) in the same plate as the treated group. The absorbance from the background noise was subtracted from the data and then a linear regression model was employed in order to get the line slope from the first 5 min of the reaction. The percentage of enzymatic activity has been calculated as described by Eq. (1)1 enzymeactivity(%)=slopetreated/slopepositivecontrol*100
1.3 µL of derivatives of 4-phenylthiazol-2-amine in 100% DMSO were mixed with 237.7 µL of a mastermix of WT PfMDH previously incubated with NAD+. The final compound concentration used in this screening was 500 µM in the presence of 0.5% (v/v) DMSO. The microplate was sealed with silver foil for 1-h incubation at 25–35 °C. Finally, reactions in both the samples and control wells were started upon the addition of 13.0 µL of 5 mM malate). At the end of the experiments, the reaction of the plate was spectrophotometrically assayed at 600 nm in order to identify turbidity due to the low solubility of the compound. All measurements were performed in duplicate.

PfMDH = biological target: T2, PfMDH (Plasmodium falciparum, UniProt Q6VVP7); assay: Thermal shift assay (TSA); format: binding; conditions: for TSA melting curve raw signal: triplicate columns
T2 construct: The full-length WT PfMDH gene was cloned into pETM-13; made in house; host or cells: E. coli Rosetta 2 (DE3) pLysS
T2 sequence (Q6VVP7 entry or part of it): as above
Experimental: The TSA experiment was conducted in a BioRad CSX 96 (Biorad). Each reaction consisted of 1 mM of compound (100 mM stock in 100% (v/v) DMSO) and 10 μM PfMDH in 100 mM Na–phosphate buffer pH 7.4, 400 mM NaCl, and 10× Sypro Orange (Invitrogen) for a total volume of 100 μl. Control experiments were performed with 1% (v/v) DMSO. Inflection points were determined using BioRad CFX96™ control software. Generally, a temperature increase of over 1 °C is interpreted as a result of the stabilization of the protein-ligand interaction. On the contrary, a negative shift is considered a destabilization caused by the fragment.

Cc1ccc(-c2csc(N)n2)cc1C [compound 5a]
remaining activity at 500 µM (WT PfMDH; 500 µM compound, Dunnett test details, positive control mean 100, n 2, read-out: Mean 2 (mean % enzymatic activity of treated group)): 52%
inhibition at 500 µM (WT PfMDH; 500 µM compound, Dunnett's multiple comparisons test, read-out: Mean Diff. (positive control vs. compound)): 48.5%
remaining activity at 500 µM (WT PfMDH; 500 µM compound, control 100%, replicate 1, read-out: % enzymatic activity repl1): 56%
remaining activity at 500 µM (WT PfMDH; 500 µM compound, control 100%, replicate 2, read-out: % enzymatic activity repl2): 47%
Slope repl1 (WT PfMDH; 500 µM compound, linear regression slope of absorbance 340 nm vs time, replicate 1): 0.01855
Slope repl2 (WT PfMDH; 500 µM compound, linear regression slope of absorbance 340 nm vs time, replicate 2): 0.01659
Slope normalized repl1 (WT PfMDH; 500 µM compound, slope relative to control = 1, replicate 1): 0.5569
Slope normalized repl2 (WT PfMDH; 500 µM compound, slope relative to control = 1, replicate 2): 0.4735
remaining activity at 500 µM (WT PfMDH; read-out: enzyme activity): 52%
ΔTm at 1000 µM (PfMDH; 1 mM compound vs DMSO control): -4 °C
Tm (PfMDH; 1 mM compound, 10 μM PfMDH, DMSO control Tm 58): 54.0 ± 0.2 °C
TSA melting curve raw signal (PfMDH; Temperature 25): 4361,22691625664 and 4136,47480077282
TSA melting curve raw signal (PfMDH; Temperature 28.5): 4004,87351225735 and 4183,98281996697 and 3977,18518163549
TSA melting curve raw signal (PfMDH; Temperature 29): 3986,17580138025 and 4159,213140841 and 3954,9246822172
TSA melting curve raw signal (PfMDH; Temperature 29.5): 3965,52273011401 and 4133,77316232738 and 3931,4868089647
TSA melting curve raw signal (PfMDH; Temperature 30): 3942,69196918976 and 4107,074098257 and 3906,46894255822
TSA melting curve raw signal (PfMDH; Temperature 30.5): 3918,20361111847 and 4079,7505229192 and 3880,66961233132
TSA melting curve raw signal (PfMDH; Temperature 31): 3892,85755253156 and 4052,78803951145 and 3854,85757088369
TSA melting curve raw signal (PfMDH; Temperature 31.5): 3868,35453137919 and 4026,78761104422 and 3830,51973110108
TSA melting curve raw signal (PfMDH; Temperature 32): 3846,14582452398 and 4002,89304325356 and 3808,96381740298
TSA melting curve raw signal (PfMDH; Temperature 32.5): 3827,35535230328 and 3981,88234223881 and 3791,26035282333
TSA melting curve raw signal (PfMDH; Temperature 33): 3812,58320085949 and 3964,3028642829 and 3777,54515038218
TSA melting curve raw signal (PfMDH; Temperature 33.5): 3801,69756150235 and 3949,2862317403 and 3767,92816787175
TSA melting curve raw signal (PfMDH; Temperature 34): 3794,14835836044 and 3937,14669832695 and 3761,78012801461
TSA melting curve raw signal (PfMDH; Temperature 34.5): 3789,41768425867 and 3927,49825494442 and 3758,75347546959
TSA melting curve raw signal (PfMDH; Temperature 35): 3787,20107392869 and 3920,20996880984 and 3758,62073564665
TSA melting curve raw signal (PfMDH; Temperature 35.5): 3787,42445071158 and 3914,62343444524 and 3761,24267883563
TSA melting curve raw signal (PfMDH; Temperature 36): 3789,87806432584 and 3911,1710367624 and 3766,28559252083
TSA melting curve raw signal (PfMDH; Temperature 36.5): 3794,85229304264 and 3909,49204056619 and 3773,84282790235
TSA melting curve raw signal (PfMDH; Temperature 37): 3802,25424487634 and 3909,25385384206 and 3783,72084315967
TSA melting curve raw signal (PfMDH; Temperature 37.5): 3812,04395610452 and 3910,368484837 and 3795,67572672777
TSA melting curve raw signal (PfMDH; Temperature 38): 3823,44040340727 and 3913,02621291175 and 3809,89581343172
TSA melting curve raw signal (PfMDH; Temperature 38.5): 3837,03387753428 and 3917,20362777738 and 3826,4956570889
TSA melting curve raw signal (PfMDH; Temperature 39): 3852,32039847376 and 3922,75702566821 and 3845,46925064995
TSA melting curve raw signal (PfMDH; Temperature 39.5): 3869,53236426586 and 3930,26334549594 and 3867,32940969988
TSA melting curve raw signal (PfMDH; Temperature 40): 3888,57436192082 and 3939,63549689652 and 3891,99828571263
TSA melting curve raw signal (PfMDH; Temperature 40.5): 3909,9422248531 and 3951,08452102982 and 3919,26474950283
TSA melting curve raw signal (PfMDH; Temperature 41): 3933,37089433234 and 3964,6560667334 and 3949,14976176316
TSA melting curve raw signal (PfMDH; Temperature 41.5): 3959,61189650686 and 3980,53295877896 and 3981,80921424824

Reference: PMC8355244, “A fragment-based approach identifies an allosteric pocket that impacts malate dehydrogenase activity” (Communications Biology, 2021)
